From ChEMBL document CHEMBL1125371, “Inhibition of human leukocyte elastase (HLE) by N-substituted peptidyl trifluoromethyl ketones” (J Med Chem, 1992)
Square brackets hold non-standard residues; d marks the D form. Peptide text beside a SMILES is read from it. * marks the point of attachment. ξ: configuration not given here. Cbz = O=C(OCc1ccccc1)*; Boc = CC(C)(C)OC(=O)*; ξV = CC(C)C(N)C(=O)O; CF3 = FC(F)(F)*; Sar = CNCC(=O)O

How the values were obtained:
Neutrophil elastase = biological target: T1, Neutrophil elastase (Homo sapiens, UniProt P08246); experiment: In vitro inhibitory activity against human leukocyte elastase
T1 sequence (P08246 whole entry): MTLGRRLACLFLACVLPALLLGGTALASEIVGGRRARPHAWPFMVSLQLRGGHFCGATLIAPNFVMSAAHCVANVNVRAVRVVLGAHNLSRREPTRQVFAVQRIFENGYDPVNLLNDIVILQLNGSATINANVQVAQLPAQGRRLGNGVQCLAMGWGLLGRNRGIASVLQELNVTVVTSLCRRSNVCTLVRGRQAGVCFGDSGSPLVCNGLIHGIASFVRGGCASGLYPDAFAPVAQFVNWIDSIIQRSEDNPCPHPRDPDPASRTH

Cricetinae gen. sp. [1] = experiment: Compound was evaluated for inhibition of Elastase-induced Pulmonary hemorrhage (EPH) in hamsters at the dose of 10 micro/mL); type: functional
Cricetinae gen. sp. [2] = experiment: Compound was evaluated for inhibition of Elastase-induced Pulmonary hemorrhage (EPH) in hamsters at the dose of 20 micro/mL); type: functional; design: unit not given here
Cricetinae gen. sp. [3] = experiment: Compound was evaluated for inhibition of Elastase-induced Pulmonary hemorrhage (EPH) in hamsters at the dose of 30 micro/mL); type: functional
Cricetinae gen. sp. [4] = experiment: Compound was evaluated for inhibition of Elastase-induced Pulmonary hemorrhage (EPH) in hamsters at the dose of 3 micro/mL); type: functional
Cricetinae gen. sp. [5] = experiment: Compound was evaluated for inhibition of Elastase-induced Pulmonary hemorrhage (EPH) in hamsters at the dose of 1 micro/mL); type: functional
Cricetinae gen. sp. [6] = experiment: Compound was evaluated for inhibition of Elastase-induced Pulmonary hemorrhage (EPH) in hamsters at the dose of 100 micro/mL); type: functional

| SMILES | IC50 (Neutrophil elastase) | also measured |
| --- | --- | --- |
| CC(C)C(NCCN(C(=O)[C@@H](NC(=O)c1ccc(C(=O)NS(=O)(=O)c2ccc(Cl)cc2)cc1)C(C)C)C1Cc2ccccc2C1)C(=O)C(F)(F)F (stereo partly drawn) | 5000 nM | Inhibition of elastase-induced pulmonary hemorrhage (Cricetinae gen. sp. [1]): 2.7 |
| CCOC(=O)N1CCC(N(CC(=O)NC(C(=O)C(F)(F)F)C(C)C)C(=O)[C@@H](NC(=O)OCc2ccccc2)C(C)C)CC1 (stereo partly drawn) | 507 nM | – |
| CC(C)[C@H](NC(=O)c1ccc(C(=O)NS(=O)(=O)c2ccc(Cl)cc2)cc1)C(=O)N(CC(=O)NC(C)(C)C(=O)C(F)(F)F)C1Cc2ccccc2C1 | > 5000 nM | – |
| CC(C)C(NC(=O)CN(C(=O)[C@@H](NC(=O)OCc1ccccc1)C(C)C)C1Cc2ccccc2C1)C(=O)C(F)(F)F (stereo partly drawn) | – | Max hemorrhage (Cricetinae gen. sp. [2]): 24.2 |
| CC(C)[C@H](NC(=O)CN(C(=O)[C@@H](NC(=O)OCc1ccccc1)C(C)C)C1Cc2ccccc2C1)C(=O)c1ccc(C(F)(F)F)cc1 | > 5000 nM | – |
| CC(C)C(NC(=O)CN(C(=O)OCc1ccccc1)C1Cc2ccccc2C1)C(=O)C(F)(F)F (stereo not drawn) | > 5000 nM | – |
| CC(C)C(NC(=O)CN(C(=O)[C@@H](NC(=O)c1ccc(C(=O)NS(=O)(=O)c2ccc(Cl)cc2)cc1)C(C)C)C1CC2CCC1C2)C(=O)C(F)(F)F (stereo partly drawn) | – | Max hemorrhage (Cricetinae gen. sp. [2]): 93.8 |
| CC(NC(=O)CN(C(=O)[C@@H](NC(=O)c1ccc(C(=O)NS(=O)(=O)c2ccc(Cl)cc2)cc1)C(C)C)C1Cc2ccccc2C1)C(=O)C(F)(F)F (stereo partly drawn) | 817 nM | – |
| CC(C)C(NCCN(C(=O)[C@@H](NC(=O)OC(C)(C)C)C(C)C)C1Cc2ccccc2C1)C(=O)C(F)(F)F (stereo partly drawn) | > 5000 nM | – |
| CC(C)C(NC(=O)OCc1ccccc1)C(=O)C(F)(F)F (stereo not drawn) | > 5000 nM | – |
| CC(C)[C@H](NC(=O)CN(C(=O)[C@@H](NC(=O)c1ccc(C(=O)NS(=O)(=O)c2ccc(Cl)cc2)cc1)C(C)C)C1Cc2ccccc2C1)C(=O)c1ccc(C(F)(F)F)cc1 | 5100 nM | Inhibition of elastase-induced pulmonary hemorrhage (Cricetinae gen. sp. [1]): 7.7 |
| CC(C)C(NC(=O)CN(C(=O)[C@@H](NC(=O)c1ccc(C(=O)NS(=O)(=O)c2ccc(Cl)cc2)cc1)C(C)C)C1Cc2ccccc2C1)C(=O)C(F)(F)F (stereo partly drawn) | – | Inhibition of elastase-induced pulmonary hemorrhage (Cricetinae gen. sp. [1]): 90.5; Max hemorrhage (Cricetinae gen. sp. [3]): 99.3; Max hemorrhage (Cricetinae gen. sp. [4]): 58.1 |
| CC(C)[C@H](NC(=O)OCc1ccccc1)C(=O)N(CC(=O)NCC(=O)C(F)(F)F)C1Cc2ccccc2C1 | > 5000 nM | – |
| CC(C)C(NC(=O)c1ccc(C(=O)NS(=O)(=O)c2ccc(Br)cc2)cc1)C(=O)N1CCC[C@H]1C(=O)N[C@H](C(=O)C(F)(F)F)C(C)C (stereo partly drawn) | – | Max hemorrhage (Cricetinae gen. sp. [5]): 33.3; Inhibition of elastase-induced pulmonary hemorrhage (Cricetinae gen. sp. [1]): 98.5; Max hemorrhage (Cricetinae gen. sp. [4]): 79.4 |
| CC(C)C(NC(=O)C1Cc2ccccc2CN1C(=O)[C@@H](NC(=O)c1ccc(C(=O)NS(=O)(=O)c2ccc(Cl)cc2)cc1)C(C)C)C(=O)C(F)(F)F (stereo partly drawn) | – | Max hemorrhage (Cricetinae gen. sp. [2]): 88.4 |
| CC(C)C(NC(=O)CN(C(=O)[C@@H](NC(=O)c1ccc(C(=O)NS(=O)(=O)c2ccc(Cl)cc2)cc1)C(C)C)C1CCCC1)C(=O)C(F)(F)F (stereo partly drawn) | 92 nM | Max hemorrhage (Cricetinae gen. sp. [2]): 99.2 |
| CC(C)[C@H](NC(=O)c1ccc(C(=O)NS(=O)(=O)c2ccc(Cl)cc2)cc1)C(=O)N(CC(=O)NC(Cc1ccccc1)C(=O)C(F)(F)F)C1Cc2ccccc2C1 (stereo partly drawn) | > 5000 nM | Max hemorrhage (Cricetinae gen. sp. [2]): 43.8 |
| CC(=O)OCC1=C(C(=O)OC(C)(C)C)N2C(=O)[C@@H](C(C)=O)C2S(=O)(=O)C1 (stereo partly drawn) | – | Max hemorrhage (Cricetinae gen. sp. [6]): 0 |

More lines, in order of falling IC50 (Neutrophil elastase), values ahead:

| IC50 (Neutrophil elastase) | SMILES | also measured |
| --- | --- | --- |
| 452 nM | CCOC(=O)CCC(=O)Nc1nc(/C(=N\OC)C(=O)N[C@H](C(=O)N(CC(=O)NC(C(=O)C(F)(F)F)C(C)C)C2Cc3ccccc3C2)C(C)C)cs1 (stereo partly drawn) | – |
| 233 nM | CC(C)C(NC(=O)C1Cc2ccccc2CN1C(=O)[C@@H](NC(=O)OCc1ccccc1)C(C)C)C(=O)C(F)(F)F (stereo in doubt; 20y) | – |
| 217 nM | CC(C)C(NC(=O)CN(Cc1ccccc1)C(=O)[C@@H](NC(=O)c1ccc(C(=O)NS(=O)(=O)c2ccc(Cl)cc2)cc1)C(C)C)C(=O)C(F)(F)F (stereo partly drawn) | – |
| 175 nM | CC(C)C(NC(=O)CN(C(=O)[C@@H](NC(=O)c1ccc(C(=O)NS(=O)(=O)c2ccc(Cl)cc2)cc1)C(C)C)C1CCCCCC1)C(=O)C(F)(F)F (stereo partly drawn) | Max hemorrhage (Cricetinae gen. sp. [2]): 84.3 |
| 172 nM | CC(C)C(NC(=O)[C@H]1CCCN1C(=O)[C@@H](NC(=O)OC(C)(C)C)C(C)C)C(=O)C(F)(F)F (stereo partly drawn) | – |
| 153 nM | CC(C)C(NC(=O)CNC(=O)[C@@H](NC(=O)OC(C)(C)C)C(C)C)C(=O)C(F)(F)F (stereo partly drawn) (Boc-Val-Gly-[ξV]-CF3) | – |
| 153 nM | CC(C)C(NC(=O)CN(C)C(=O)[C@@H](NC(=O)OCc1ccccc1)C(C)C)C(=O)C(F)(F)F (stereo partly drawn) (Cbz-Val-[Sar]-[ξV]-CF3) | – |
| 149 nM | CC(C)C(NC(=O)CN(C(=O)[C@@H](NC(=O)c1ccc(C(=O)NS(=O)(=O)c2ccc(Br)cc2)cc1)C(C)C)C1Cc2ccccc2C1)C(=O)C(F)(F)F (stereo partly drawn) | – |
| 138 nM | CC(C)C(NC(=O)CN(Cc1ccco1)C(=O)[C@@H](NC(=O)c1ccc(C(=O)NS(=O)(=O)c2ccc(Cl)cc2)cc1)C(C)C)C(=O)C(F)(F)F (stereo partly drawn) | Inhibition of elastase-induced pulmonary hemorrhage (Cricetinae gen. sp. [1]): 96.2 |
| 84 nM | COc1ccc(CCN(CC(=O)NC(C(=O)C(F)(F)F)C(C)C)C(=O)[C@@H](NC(=O)c2ccc(C(=O)NS(=O)(=O)c3ccc(Cl)cc3)cc2)C(C)C)cc1OC (stereo partly drawn) | – |
| 73 nM | CC(C)C(NC(=O)C1Cc2ccccc2CN1C(=O)[C@@H](NC(=O)OCc1ccccc1)C(C)C)C(=O)C(F)(F)F (stereo in doubt; 20z) | – |
| 73 nM | CC(C)C(NC(=O)CNC(=O)[C@@H](NC(=O)c1ccc(C(=O)NS(=O)(=O)c2ccc(Cl)cc2)cc1)C(C)C)C(=O)C(F)(F)F (stereo partly drawn) | Max hemorrhage (Cricetinae gen. sp. [2]): 85.1 |
| 67 nM | CC(C)C(NC(=O)CN(C(=O)[C@@H](NC(=O)c1ccc(C(=O)NS(=O)(=O)c2ccc(Cl)cc2)cc1)C(C)C)C1CCCCCCC1)C(=O)C(F)(F)F (stereo partly drawn) | Inhibition of elastase-induced pulmonary hemorrhage (Cricetinae gen. sp. [1]): 96.7 |
| 65 nM | CC(C)C(NC(=O)C1CCCN1C(=O)[C@@H](NC(=O)OC(C)(C)C)C(C)C)C(=O)C(F)(F)F (stereo partly drawn) | – |
| 57 nM | CCOC(=O)N1CCC(N(CC(=O)NC(C(=O)C(F)(F)F)C(C)C)C(=O)[C@@H](NC(=O)c2ccc(C(=O)NS(=O)(=O)c3ccc(Cl)cc3)cc2)C(C)C)CC1 (stereo partly drawn) | Max hemorrhage (Cricetinae gen. sp. [2]): 98.4 |
| 52 nM | CC(C)C(NC(=O)CN(C)C(=O)[C@@H](NC(=O)c1ccc(C(=O)NS(=O)(=O)c2ccc(Cl)cc2)cc1)C(C)C)C(=O)C(F)(F)F (stereo partly drawn) | – |
| 30 nM | CC(C)C(NC(=O)CN(CC1CCCO1)C(=O)[C@@H](NC(=O)c1ccc(C(=O)NS(=O)(=O)c2ccc(Cl)cc2)cc1)C(C)C)C(=O)C(F)(F)F (stereo partly drawn) | – |
